Test results taken from patent US20240158369A1, “PYRIMIDINE COMPOUND AS WEE-1 INHIBITOR” (WIGEN BIOMEDICINE TECHNOLOGY (SHANGHAI) CO., LTD., priority 2021, published 2024).
Like-named read-outs stand apart in the source and are kept apart here.

Key:
[1] = molecular target: recombinant protein Wee-1 (Homo sapiens (Human), UniProt P30291); test: HTRF assay for inhibiting enzymatic activity of recombinant protein Wee-1; assay type: biochemical; details: compounds up to 200 nM, read-out: (IC50) Inhibitory activity against recombinant protein Wee-1
Procedure: The inhibitory effect of the compounds on the enzyme activity of recombinant protein Wee-1 was determined by HTRF. The procedures are as follows:
After DMSO or serially diluted compounds (up to 200 nM, 1:5 diluted) and recombinant proteins were co-incubated in a kinase buffer at 37° C. for 30 min before Fluorescein-PolyGAT and ATP were added, and the reaction was initiated by addition of a substrate. After incubation at room temperature for 90 min, an antibody and a detection solution were added, and after further incubation at room temperature for 60 min, fluorescence values were detected (excitation wavelength: 340 nm, emission wavelengths: 495 and 520 nm). The 520 nm/495 nm fluorescence intensity ratio value was calculated, and compared with that of the DMSO group, and then the inhibition percentages and IC50 values of the compounds were calculated.

MIA PaCa-2 cells = test: In-vitro anti-proliferative activity in combination with gemcitabine on MIA PaCa-2 cells; assay type: cell-based; details: 72 h
Procedure: MIA PaCa-2 cells were seeded on a 384-well plate at 3000 cells/well, and 20 nM or 200 nM gemcitabine (GMC) was added. After overnight adherence culture, DMSO or the compounds serially 1:5-diluted from 100 nM were added. The viability was assessed 72 h after dosing by measuring the intracellular ATP content. The inhibition percentage of viable cells by the compounds was calculated by comparing with the DMSO group, and the IC50 value was calculated.

[2] = with 20 nM gemcitabine, read-out: in combination with 20 nM GMC IC50
[3] = with 200 nM gemcitabine, read-out: in combination with 200 nM GMC IC50

recombinant protein Wee-1, sequence (P30291 whole entry): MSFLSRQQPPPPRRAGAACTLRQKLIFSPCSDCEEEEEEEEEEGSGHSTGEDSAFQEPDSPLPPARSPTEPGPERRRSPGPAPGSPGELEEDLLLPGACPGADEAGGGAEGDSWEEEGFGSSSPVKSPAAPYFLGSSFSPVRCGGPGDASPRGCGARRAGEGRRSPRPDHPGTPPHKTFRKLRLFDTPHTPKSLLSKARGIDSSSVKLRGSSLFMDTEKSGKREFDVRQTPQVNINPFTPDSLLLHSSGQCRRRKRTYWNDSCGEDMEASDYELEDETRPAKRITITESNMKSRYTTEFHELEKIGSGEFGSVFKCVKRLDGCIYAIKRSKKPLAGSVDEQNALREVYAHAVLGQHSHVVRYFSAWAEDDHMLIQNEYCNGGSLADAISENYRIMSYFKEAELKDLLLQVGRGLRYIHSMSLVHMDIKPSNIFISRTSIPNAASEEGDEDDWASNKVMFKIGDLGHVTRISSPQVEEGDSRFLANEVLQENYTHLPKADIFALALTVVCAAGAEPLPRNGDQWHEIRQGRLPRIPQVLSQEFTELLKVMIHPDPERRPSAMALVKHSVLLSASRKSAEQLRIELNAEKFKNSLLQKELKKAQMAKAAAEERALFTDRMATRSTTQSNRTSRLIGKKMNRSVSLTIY

## CN1CCc2ccc(Nc3ncc(Br)c(Nc4cccc(N=S(C)(C)=O)n4)n3)cc2C1 [Compound 11]
[1]
  IC50: ≤ 10 nM
MIA PaCa-2 cells; [2]
  IC50: 16 nM

## C#Cc1cc(Nc2ncc(C#N)c(Nc3cccc(N=S(C)(C)=O)n3)n2)cc2c1CCN(C)C2 [Compound 43]
[1]
  IC50: ≤ 10 nM
MIA PaCa-2 cells; [2]
  IC50: 21.2 nM

## C=Cc1cc(N=S(C)(C)=O)nc(Nc2nc(Nc3ccc4c(c3)CN(C)CC4)ncc2C#N)c1 [Compound 85]
[1]
  IC50: ≤ 10 nM
MIA PaCa-2 cells; [3]
  IC50: > 100 nM

## CN1CCc2ccc(Nc3ncc(-c4cn[nH]c4)c(Nc4cccc(N=S(C)(C)=O)n4)n3)cc2C1 [Compound 10]
[1]
  IC50: > 50 nM
MIA PaCa-2 cells; [2]
  IC50: > 100 nM

## CN1CCc2c(cc(Nc3ncc(C#N)c(Nc4cccc(N=S(C)(C)=O)n4)n3)cc2N2CCCCC2)C1 [Compound 115]
[1]
  IC50: ≤ 10 nM
MIA PaCa-2 cells; [2]
  IC50: 9.3 nM

## CN1CCc2ccc(Nc3ncc(C#N)c(Nc4cccc(N=S(C)(C)=O)n4)n3)cc2CC1 [Compound 55]
[1]
  IC50: ≤ 10 nM
MIA PaCa-2 cells; [2]
  IC50: 11.3 nM

## CN1CCc2c(cc(Nc3ncc(C#N)c(Nc4cccc(N=S(C)(C)=O)n4)n3)cc2C2=CCOCC2)C1 [Compound 118]
[1]
  IC50: ≤ 10 nM
MIA PaCa-2 cells; [2]
  IC50: 1.1 nM

## C[C@@H]1CN(c2cc(Nc3ncc(C#N)c(Nc4cccc(N=S(C)(C)=O)n4)n3)cc3c2CCN(C)C3)C[C@H](C)O1 [Compound 127]
[1]
  IC50: ≤ 10 nM
MIA PaCa-2 cells; [2]
  IC50: 8.2 nM

## CN1CCc2ccc(Nc3ncc(C#N)c(-n4cnc5c(N=S(C)(C)=O)cccc54)n3)cc2C1 [Compound 80]
[1]
  IC50: 10 to 50 nM
MIA PaCa-2 cells; [3]
  IC50: > 100 nM

## CN1CCc2ccc(Nc3ncc(S(C)(=O)=O)c(Nc4cccc(N=S(C)(C)=O)n4)n3)cc2C1 [Compound 5]
[1]
  IC50: > 50 nM
MIA PaCa-2 cells; [2]
  IC50: > 100 nM

## CN1CCc2ccc(Nc3ncc(C#N)c(-c4c[nH]c5c(N=S(C)(C)=O)cccc45)n3)cc2C1 [Compound 78]
[1]
  IC50: ≤ 10 nM
MIA PaCa-2 cells; [2]
  IC50: > 100 nM

## CN1CCc2ccc(Nc3ncc(I)c(Nc4cccc(N=S(C)(C)=O)n4)n3)cc2C1 [Compound 105]
[1]
  IC50: ≤ 10 nM
MIA PaCa-2 cells; [2]
  IC50: 26.5 nM

## Cc1cc(Nc2ncc(C#N)c(Nc3cccc(N=S(C)(C)=O)n3)n2)cc(C2CC2)c1N1CCN(C)CC1 [Compound 156]
[1]
  IC50: ≤ 10 nM
MIA PaCa-2 cells; [2]
  IC50: 6 nM

## CN1CCc2ccc(Nc3ncc(C(N)=O)c(Nc4cccc(N=S(C)(C)=O)n4)n3)cc2C1 [Compound 6]
[1]
  IC50: > 50 nM
MIA PaCa-2 cells; [2]
  IC50: > 100 nM

## CS(C)(=O)=Nc1cccc(Nc2nc(Nc3cc4c(c(C5CC5)c3)CCNC4)ncc2C#N)n1 [Compound 148]
[1]
  IC50: ≤ 10 nM
MIA PaCa-2 cells; [2]
  IC50: 2.1 nM

## CN1Cc2cc(Nc3ncc(C#N)c(Nc4cccc(N=S(C)(C)=O)n4)n3)ccc2C2(CC2)C1 [Compound 29]
[1]
  IC50: ≤ 10 nM
MIA PaCa-2 cells; [2]
  IC50: 3.7 nM

## COc1cc(Nc2ncc(C#N)c(Nc3cccc(N=S(C)(C)=O)n3)n2)cc2c1CCN(C)C2 [Compound 22]
[1]
  IC50: ≤ 10 nM
MIA PaCa-2 cells; [3]
  IC50: 1.2 nM

## CN1CCN(c2ccc(Nc3ncc(C#N)c(Nc4cccc(N=S(C)(C)=O)n4)n3)cc2)CC1 [Compound 61]
[1]
  IC50: ≤ 10 nM
MIA PaCa-2 cells; [2]
  IC50: 7.5 nM

## CN1CCc2c(CCCN)cc(Nc3ncc(C#N)c(Nc4cccc(N=S(C)(C)=O)n4)n3)cc2C1 [Compound 136]
[1]
  IC50: ≤ 10 nM

## CN1CCc2ccc(Nc3ncc(C#N)c(Nc4cccc(N=S(C)(C)=O)n4)n3)cc2C1(C)C [Compound 104]
[1]
  IC50: ≤ 10 nM

## CN1CCc2c(CCO)cc(Nc3ncc(C#N)c(Nc4cccc(N=S(C)(C)=O)n4)n3)cc2C1 [Compound 132]
[1]
  IC50: ≤ 10 nM

## CN1CCc2ccc(Nc3ncc(C#N)c(Nc4cccc(N=S(C)(C)=O)n4)n3)cc2C12CC2 [Compound 103]
[1]
  IC50: ≤ 10 nM

## CN1CCc2ccc(Nc3ncc(C#N)c(Nc4cc5c(c(N=S(C)(C)=O)n4)CCC5)n3)cc2C1 [Compound 83]
[1]
  IC50: ≤ 10 nM

## CCOc1cc(Nc2ncc(C#N)c(Nc3ccc(F)c(N=S(C)(C)=O)n3)n2)cc2c1CCN(C)C2 [Compound 92]
[1]
  IC50: ≤ 10 nM

## CN1Cc2cc(Nc3ncc(C#N)c(Nc4cccc(N=S(C)(C)=O)n4)n3)cc(C3CC3)c2C(C)(C)C1 [Compound 39]
[1]
  IC50: ≤ 10 nM

## CN1CCc2ccc(Nc3ncc(C#N)c(Nc4cncc(N=S(C)(C)=O)n4)n3)cc2C1 [Compound 68]
[1]
  IC50: ≤ 10 nM

## CCc1cc(Nc2ncc(C#N)c(Nc3cccc(N=S(C)(C)=O)n3)n2)cc2c1CCNC2 [Compound 151]
[1]
  IC50: ≤ 10 nM

## CCc1cc(Nc2ncc(C#N)c(Nc3cccc(N=S(C)(C)=O)n3)n2)cc2c1CCN(CC)C2 [Compound 141]
[1]
  IC50: ≤ 10 nM

## CS(C)(=O)=Nc1cccc(Nc2nc(Nc3ccc4c(c3)CN(C3CC3)CC4)ncc2C#N)n1 [Compound 47]
[1]
  IC50: ≤ 10 nM
